According to patent publication US6677433B2 (The Regents of the University of California, priority 2001, dated 2004):

Experiments:
[1] = Reoxidation of reduced BLG in air; assay type: physicochemical; details: reduced by either NTS or DTT
Method: Two sulfhydryl (SH) groups can often spontaneously react to form an S—S bond in the presence of oxygen. […] For example, the reduced form of β-lactoglobulin (BLG), a major allergen of cow's milk, is fully reoxidized after 3 days in air whether reduced by either NTS or DTT. This invention provides for the stabilization of proteins, including allergenic proteins reduced by the NTS at 4° C. and by DTT at 55° C. Other physiological reductants such as lipoic acid may also be used to initially reduce the proteins. In general, the reduction reactions were conducted as described in previous examples. The proteins are stabilized in that the SH groups of these proteins and allergens are blocked and prevented from reoxidizing to form S—S bonds. This stabilization is maintained for at least three months, preferably at least six months and more preferably for longer than one year. Reduced BLG was stabilized by reaction with the physiological disulfides, cystamine and oxidized glutathione (GSSG) and also by heat. Other physiological disulfides such as homoglutathione and some microbial disulfides would also be suitable. Besides BLG, examples are provided for milk, peanut and pollen extracts. However, other reduced proteins such as those of egg, soy, rice, wheat and barley may also be stabilized by reaction with the same physiological disulfides and by treatment with heat. […]

trypsin = test: Trypsin proteolysis of purified milk allergen proteins; assay type: biochemical; details: 2 μg trypsin
Method: The analysis of the reduction was done using the mBBr/SDS-PAGE techniques. Further in this study, when 10 μg of an NTS reduced purified milk allergen protein, β-lactoglobulin (Sigma Chemical Co.), was treated with 2 μg of trypsin, proteolysis was 100% as compared with only 50% for the identically trypsin treated oxidized β-lactoglobulin. […] However, 10 μg of purified […] reduced by the NTS was proteolyzed 80% by trypsin. Also 10 μg of α-lactalbumin reduced by 0.8 μg of thioredoxin and 0.5 mM DTT was 100% proteolyzed by 2 μg of trypsin.

atopic dogs = test: Skin tests in atopic dogs (wheal area); details: dog, in vivo
Method: Newborn pups from two litters of the atopic dog colony, designated CGB and GCB, were injected subcutaneously at day 1 with 1 μg each of wheat, cows milk and beef extract (Miles, Inc., Elkhart, Ind., described in Example 33) in 0.2 ml of alum. A third litter, designated CBB, was injected with a soy extract (Miles, Inc. described in Example 33) in addition to these same allergens. Procedures for the sensitization, testing and maintenance of the pups were substantially the same as those described in Example 36.
About 3 min prior to skin testing, each dog received 4-5 ml of filtered 0.5% Evans blue dye solution (equivalent to 0.2 ml of 0.5% Evans blue dye per kg of weight) through a cephalic vein to enhance assessment of the cutaneous IgE antibodies. Serial dilutions of 100 μl of each sample were injected intradermally on the abdominal skin to establish the titer. After 15-20 min, the allergic response was determined by measuring the size of the blue wheal reaction (maximum length and width). An appropriate negative control (buffer diluted in physiological saline) was included for each animal tested. Repeated tests with thioredoxin, NTR, NADPH and pepsin alone were consistently negative.

pepsin [2] = test: Pepsin assay in simulated gastric fluid; assay type: in vitro ADME, porcine; details: oxidized BLG in milk, SGF 37° C.
Method: BLG, 640 μg, or milk, 1 mg protein (i.e., about 30 μl), was incubated with or without the thioredoxin system (NTS) at either 4° C. […] The BLG, 320 μg, or milk, 500 μg protein, was then treated in 200 μl of simulated gastric fluid (SGF) as described by Astwood, J. D. et al. (1996), “Stability of food allergens to digestion in vitro”, Nature Biotechnol. 14:1269-1273. SGF consists of 0.32% pepsin (w/v) and 30 mM NaCl adjusted at pH 1.2 with HCl (Board of Trustees (ed.) 1995, Simulated Gastric Fluid, TS., pp. 2053 in the United States Pharmacopeia 23, The National Formulary 18. United States Pharmacopeial Convention, Inc. Rockville, Md.). The reaction mixture was incubated at 37° C. and stopped by adding 0.375-fold volume of 160 mM Na2CO3 (ca. pH 7) after 0, 0.25, 1, 2, 4, 8, 15, 30 and 60 min incubation. The protein mixture was then subjected to SDS-PAGE (15% gels) and stained for protein with Coomassie blue as described below. As indicated, the allergenicity of the digested samples was determined by skin test analysis.

NADP/thioredoxin system = NADP/thioredoxin system (Escherichia coli, UniProt P0AA25)
Method: Reactions were carried out in physiological buffered saline solution (PBS; i.e., 10 mM Na2HPO4, 1.8 mM KH2PO4, 2.7 mM KCl and 137 mM NaCl, pH 7.4) containing either 10 μg of pure target protein or 50 μg of raw milk. The reaction mixtures were incubated at 4° C. overnight or at 37° C. and 55° C. for 45 min. For complete reduction, samples were incubated in PBS containing 5 μl of 100 mM DTT and boiled 5 min. The reduced proteins were visualized on gels by mBBr labeling and gel electrophoresis as described below. The extent of reduction was determined by scanning the gels.
Sulfhydryl groups were visualized as their fluorescent mBBr derivatives. mBBr, 10 μl of a 100 mM solution, was added to each protein sample. After 20 min of incubation, the reaction was stopped by adding 10 μl of 100 mM 2-mercaptoethanol, 10 μl of 20% SDS and 20 μl of SDS/PAGE sample buffer containing 80% (v/v) glycerol and 0.005% bromophenol blue. Proteins were then separated by SDS/PAGE (10-20% acrylamide gradient) as described below. After electrophoresis, gels were placed in 12% trichloroacetic acid for 1 hr for fixation and then soaked overnight or longer in 40% (v/v) methanol and 10% (v/v) acetic acid with several changes to remove excess mBBr. The destained gels were then placed under 365 nm UV light to visualize fluorescent bands. […]

pepsin [3] = test: Assay for stability to pepsin (simulated gastric fluid); assay type: in vitro ADME, porcine; details: 37° C.
Method: BLG (1 mg/ml) or milk (15 mg/ml) were mixed with simulated gastric fluid (SGF) to give 0.32% pepsin and incubated for the indicated times at 37° C. as described in Example 39 and Astwood et al., 1996, herein incorporated by reference. The digested proteins were analyzed by reducing SDS-PACE (10 to 20% gradient gel) also as described in Laemmli, 1970, herein incorporated by reference.

Acetylcholine Receptor = target: T1, Acetylcholine Receptor (Mus musculus, UniProt P02716+P04756+P04760); assay type: binding; details: cells treated with reductant, washed, then toxin; no reductant = 100
T1 construct: Mouse cells, line C2, were grown as described by Gu et al; endogenous in cells; host or cells: mouse cell line C2, after fusion medium (myotubes)
T1 sequence (P04760 23-519): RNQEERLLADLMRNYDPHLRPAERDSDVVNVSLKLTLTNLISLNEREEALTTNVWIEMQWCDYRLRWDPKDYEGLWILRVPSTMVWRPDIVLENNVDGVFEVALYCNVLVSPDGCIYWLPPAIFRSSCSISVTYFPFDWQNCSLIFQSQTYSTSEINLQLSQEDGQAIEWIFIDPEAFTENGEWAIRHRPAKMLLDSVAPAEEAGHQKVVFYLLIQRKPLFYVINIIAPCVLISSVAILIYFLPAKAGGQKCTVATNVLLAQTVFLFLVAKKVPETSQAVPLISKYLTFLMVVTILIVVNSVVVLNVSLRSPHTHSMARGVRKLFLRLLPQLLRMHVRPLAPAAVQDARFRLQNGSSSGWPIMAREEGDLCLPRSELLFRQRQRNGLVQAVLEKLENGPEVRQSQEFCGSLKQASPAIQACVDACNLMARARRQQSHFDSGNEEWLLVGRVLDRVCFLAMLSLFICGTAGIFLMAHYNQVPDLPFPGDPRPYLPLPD
T1 sequence (P02716 25-520): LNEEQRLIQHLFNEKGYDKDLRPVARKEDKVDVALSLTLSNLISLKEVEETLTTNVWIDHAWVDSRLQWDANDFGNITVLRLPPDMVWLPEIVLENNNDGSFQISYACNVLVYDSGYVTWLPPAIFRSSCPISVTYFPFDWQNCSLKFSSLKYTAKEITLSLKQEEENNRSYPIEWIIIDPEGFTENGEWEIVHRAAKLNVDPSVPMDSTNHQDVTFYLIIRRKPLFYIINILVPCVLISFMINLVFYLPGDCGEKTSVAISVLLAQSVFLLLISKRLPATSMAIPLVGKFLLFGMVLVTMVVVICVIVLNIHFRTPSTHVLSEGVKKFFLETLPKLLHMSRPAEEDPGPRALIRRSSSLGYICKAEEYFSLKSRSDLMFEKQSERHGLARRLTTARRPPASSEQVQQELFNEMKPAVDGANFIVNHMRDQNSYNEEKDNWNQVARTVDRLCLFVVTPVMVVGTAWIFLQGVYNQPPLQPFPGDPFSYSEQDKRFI
T1 sequence (P09690 24-501, further chain): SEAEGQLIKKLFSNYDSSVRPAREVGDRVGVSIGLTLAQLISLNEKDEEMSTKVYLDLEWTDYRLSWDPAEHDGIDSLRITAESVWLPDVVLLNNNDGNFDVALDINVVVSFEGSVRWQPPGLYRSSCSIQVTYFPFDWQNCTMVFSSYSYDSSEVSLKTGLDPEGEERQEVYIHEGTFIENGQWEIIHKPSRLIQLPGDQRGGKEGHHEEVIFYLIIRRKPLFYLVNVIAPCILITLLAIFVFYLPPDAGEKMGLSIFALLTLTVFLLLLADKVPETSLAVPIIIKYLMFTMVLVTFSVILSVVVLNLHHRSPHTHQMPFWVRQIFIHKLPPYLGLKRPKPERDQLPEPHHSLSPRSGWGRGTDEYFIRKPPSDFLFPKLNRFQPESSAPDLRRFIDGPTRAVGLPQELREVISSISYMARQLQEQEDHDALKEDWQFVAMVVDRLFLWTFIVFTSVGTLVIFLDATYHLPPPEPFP
T1 sequence (P04756 21-457): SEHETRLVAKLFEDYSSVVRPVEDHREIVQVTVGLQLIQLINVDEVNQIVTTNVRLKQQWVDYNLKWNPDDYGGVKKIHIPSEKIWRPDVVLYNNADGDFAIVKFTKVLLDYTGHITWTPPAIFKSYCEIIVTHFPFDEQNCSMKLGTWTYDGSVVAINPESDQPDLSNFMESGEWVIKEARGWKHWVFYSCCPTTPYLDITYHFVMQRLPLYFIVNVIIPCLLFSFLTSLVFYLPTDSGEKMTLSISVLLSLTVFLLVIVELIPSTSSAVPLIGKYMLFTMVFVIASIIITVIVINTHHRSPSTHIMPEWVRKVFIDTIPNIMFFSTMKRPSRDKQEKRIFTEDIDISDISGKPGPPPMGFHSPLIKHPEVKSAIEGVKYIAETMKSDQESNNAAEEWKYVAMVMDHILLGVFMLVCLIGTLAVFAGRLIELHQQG

castor seed 2S protein = assay type: biochemical, Ricinus communis; details: 20 min at 25° C.

Molecule: reduced form of BLG: BLG reduced by either NTS or DTT
- time to full reoxidation in air [1]: 3 days

Molecule: β-lactoglobulin: bovine β-lactoglobulin, major milk allergen; Control = untreated BLG in Tables XVIII, XXI-XXIV
- proteolysis by trypsin (trypsin; 10 μg oxidized protein): 50%
- proteolysis by trypsin (trypsin; 10 μg protein reduced by the NTS): 100%
- share of the total wheal-inducing activity of milk (atopic dogs): 80%
- time resisting digestion (pepsin [2]): at least 60 min
- time BLG remained reduced (NADP/thioredoxin system): 2 days
- half-life in SGF (pepsin [3]): about 2 hours

Molecule: O[C@H](CS)[C@H](O)CS (racemic) [DTT, dithiothreitol]
- % Binding, Treatment C (Acetylcholine Receptor): 85.0%
- Relative Reduction (%) (castor seed 2S protein): 67%
